Assay results: PubChem BioAssay (NCI)
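Protocol summary: plate cells (96-well), add compound at 5 concentrations, incubate 48 h, interpolate endpoints linearly. Here, GI50 denotes the concentration required for 50% inhibition of growth. TGI: total growth inhibition.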

Key:
Test in all cases: DTP human tumour cell line panel, 48 h
MALME-3M melanoma = system: MALME-3M melanoma
IGROV1 ovarian = system: IGROV1 ovarian
M14 melanoma = system: M14 melanoma
SF-295 CNS = system: SF-295 CNS
TK-10 renal = system: TK-10 renal
HS 578T breast = system: HS 578T breast
SK-MEL-2 melanoma = system: SK-MEL-2 melanoma
OVCAR-8 ovarian = system: OVCAR-8 ovarian
786-0 renal = system: 786-0 renal
SNB-19 CNS = system: SNB-19 CNS
BT-549 breast = system: BT-549 breast
K-562 leukemia = system: K-562 leukemia
LOX IMVI melanoma = system: LOX IMVI melanoma
SNB-75 CNS = system: SNB-75 CNS
T-47D breast = system: T-47D breast
HOP-62 NSCLC = system: HOP-62 NSCLC
PC-3 prostate = system: PC-3 prostate
NCI-H23 lung = system: NCI-H23 lung
NCI-H460 lung = system: NCI-H460 lung
COLO 205 colon = system: COLO 205 colon
HT29 colon = system: HT29 colon
MCF7 breast = system: MCF7 breast
OVCAR-5 ovarian = system: OVCAR-5 ovarian
RPMI-8226 leukemia = system: RPMI-8226 leukemia
SK-MEL-5 melanoma = system: SK-MEL-5 melanoma
A549 NSCLC = system: A549 NSCLC
OVCAR-4 ovarian = system: OVCAR-4 ovarian
SK-MEL-28 melanoma = system: SK-MEL-28 melanoma
NCI-H522 lung = system: NCI-H522 lung
OVCAR-3 ovarian = system: OVCAR-3 ovarian
RXF 393 renal = system: RXF 393 renal
SF-539 CNS = system: SF-539 CNS
ACHN renal = system: ACHN renal
KM12 colon = system: KM12 colon
CCRF-CEM leukemia = system: CCRF-CEM leukemia
HCT-15 colon = system: HCT-15 colon
EKVX NSCLC = system: EKVX NSCLC
SW-620 colon = system: SW-620 colon
UACC-257 melanoma = system: UACC-257 melanoma
A498 renal = system: A498 renal
SK-OV-3 ovarian = system: SK-OV-3 ovarian
UO-31 renal = system: UO-31 renal
UACC-62 melanoma = system: UACC-62 melanoma
SR leukemia = system: SR leukemia
CAKI-1 renal = system: CAKI-1 renal
MDA-MB-435 = system: MDA-MB-435
HOP-92 NSCLC = system: HOP-92 NSCLC
MDA-MB-231 breast = system: MDA-MB-231 breast
DU-145 prostate = system: DU-145 prostate
NCI/ADR-RES ovarian = system: NCI/ADR-RES ovarian
SN12C renal = system: SN12C renal
SF-268 CNS = system: SF-268 CNS
MOLT-4 leukemia = system: MOLT-4 leukemia
U251 CNS = system: U251 CNS
HL-60(TB) leukemia = system: HL-60(TB) leukemia
HCT-116 colon = system: HCT-116 colon
NCI-H226 lung = system: NCI-H226 lung

Which GI50 (MALME-3M melanoma) does the source give for N#Cc1c[nH]n2c(N=Nc3ccc(Cl)cc3)c(O)nc12 here?
Its GI50 is 41.6 µM.

And the TGI (MALME-3M melanoma)?
The TGI was > 100 µM.

What about the GI50 (IGROV1 ovarian) of the same molecule?
Its GI50 is 50.5 µM.

What about the TGI (IGROV1 ovarian) of the same molecule?
Its TGI is > 100 µM.

And the GI50 (M14 melanoma)?
The GI50 was 77.3 µM.

What about the TGI (M14 melanoma) of the same molecule?
The TGI was > 100 µM.

And the GI50 (SF-295 CNS)?
The GI50 was 30.1 µM.

What about the TGI (SF-295 CNS) of the same molecule?
Its TGI is > 100 µM.

And the GI50 (TK-10 renal)?
The GI50 was 21.3 µM.

And the TGI (TK-10 renal)?
The TGI was 68.3 µM.

What about the GI50 (HS 578T breast) of the same molecule?
Its GI50 is 56.9 µM.

What about the TGI (HS 578T breast) of the same molecule?
Its TGI is > 100 µM.

And the GI50 (SK-MEL-2 melanoma)?
Its GI50 is 52 µM.

And the TGI (SK-MEL-2 melanoma)?
The TGI was > 100 µM.

And the GI50 (OVCAR-8 ovarian)?
Its GI50 is 32 µM.

What about the TGI (OVCAR-8 ovarian) of the same molecule?
The TGI was > 100 µM.

What about the GI50 (786-0 renal) of the same molecule?
Its GI50 is 51.6 µM.

And the TGI (786-0 renal)?
Its TGI is > 100 µM.

What about the GI50 (SNB-19 CNS) of the same molecule?
The GI50 was 33.8 µM.

And the TGI (SNB-19 CNS)?
The TGI was > 100 µM.

What about the GI50 (BT-549 breast) of the same molecule?
Its GI50 is 28.5 µM.

What about the TGI (BT-549 breast) of the same molecule?
Its TGI is 77.6 µM.

And the GI50 (K-562 leukemia)?
The GI50 was 26.4 µM.

What about the TGI (K-562 leukemia) of the same molecule?
The TGI was > 100 µM.

And the GI50 (LOX IMVI melanoma)?
The GI50 was 28.8 µM.

What about the TGI (LOX IMVI melanoma) of the same molecule?
Its TGI is > 100 µM.

And the GI50 (SNB-75 CNS)?
Its GI50 is 40.7 µM.

And the TGI (SNB-75 CNS)?
Its TGI is > 100 µM.

And the GI50 (T-47D breast)?
Its GI50 is 10.1 µM.

What about the TGI (T-47D breast) of the same molecule?
The TGI was 56 µM.

And the GI50 (HOP-62 NSCLC)?
Its GI50 is 62.7 µM.

What about the TGI (HOP-62 NSCLC) of the same molecule?
The TGI was > 100 µM.

What about the GI50 (PC-3 prostate) of the same molecule?
The GI50 was 23.1 µM.

And the TGI (PC-3 prostate)?
Its TGI is > 100 µM.

And the GI50 (NCI-H23 lung)?
Its GI50 is 18 µM.

And the TGI (NCI-H23 lung)?
Its TGI is 51.2 µM.

What about the GI50 (NCI-H460 lung) of the same molecule?
The GI50 was 29.1 µM.

And the TGI (NCI-H460 lung)?
The TGI was > 100 µM.

And the GI50 (COLO 205 colon)?
The GI50 was 29 µM.

And the TGI (COLO 205 colon)?
Its TGI is > 100 µM.

What about the GI50 (HT29 colon) of the same molecule?
Its GI50 is 50.2 µM.

And the TGI (HT29 colon)?
The TGI was > 100 µM.

And the GI50 (MCF7 breast)?
Its GI50 is 21 µM.

And the TGI (MCF7 breast)?
The TGI was > 100 µM.

What about the GI50 (OVCAR-5 ovarian) of the same molecule?
Its GI50 is 84.9 µM.

What about the TGI (OVCAR-5 ovarian) of the same molecule?
The TGI was > 100 µM.

What about the GI50 (RPMI-8226 leukemia) of the same molecule?
Its GI50 is 25.7 µM.

And the TGI (RPMI-8226 leukemia)?
Its TGI is 95.3 µM.

What about the GI50 (SK-MEL-5 melanoma) of the same molecule?
The GI50 was 20.8 µM.

And the TGI (SK-MEL-5 melanoma)?
The TGI was 43.7 µM.

And the GI50 (A549 NSCLC)?
Its GI50 is 31.9 µM.

And the TGI (A549 NSCLC)?
Its TGI is > 100 µM.

And the GI50 (OVCAR-4 ovarian)?
Its GI50 is 57.3 µM.

And the TGI (OVCAR-4 ovarian)?
The TGI was > 100 µM.

And the GI50 (SK-MEL-28 melanoma)?
The GI50 was 44.4 µM.

What about the TGI (SK-MEL-28 melanoma) of the same molecule?
Its TGI is > 100 µM.

And the GI50 (NCI-H522 lung)?
The GI50 was 26.9 µM.

What about the TGI (NCI-H522 lung) of the same molecule?
The TGI was > 100 µM.

What about the GI50 (OVCAR-3 ovarian) of the same molecule?
Its GI50 is 40.3 µM.

What about the TGI (OVCAR-3 ovarian) of the same molecule?
Its TGI is > 100 µM.

What about the GI50 (RXF 393 renal) of the same molecule?
Its GI50 is 29.7 µM.

What about the TGI (RXF 393 renal) of the same molecule?
Its TGI is > 100 µM.

What about the GI50 (SF-539 CNS) of the same molecule?
The GI50 was 26.9 µM.

And the TGI (SF-539 CNS)?
The TGI was 54.1 µM.

And the GI50 (ACHN renal)?
The GI50 was 24.7 µM.

And the TGI (ACHN renal)?
The TGI was 62 µM.

And the GI50 (KM12 colon)?
The GI50 was 29.4 µM.

What about the TGI (KM12 colon) of the same molecule?
The TGI was > 100 µM.

What about the GI50 (CCRF-CEM leukemia) of the same molecule?
Its GI50 is 31.1 µM.

And the TGI (CCRF-CEM leukemia)?
Its TGI is > 100 µM.

And the GI50 (HCT-15 colon)?
Its GI50 is 22 µM.

What about the TGI (HCT-15 colon) of the same molecule?
The TGI was 62.9 µM.

And the GI50 (EKVX NSCLC)?
The GI50 was 31.7 µM.

And the TGI (EKVX NSCLC)?
Its TGI is 81.1 µM.

And the GI50 (SW-620 colon)?
The GI50 was 47.9 µM.

What about the TGI (SW-620 colon) of the same molecule?
The TGI was > 100 µM.

And the GI50 (UACC-257 melanoma)?
Its GI50 is 20.1 µM.

What about the TGI (UACC-257 melanoma) of the same molecule?
The TGI was 57.9 µM.

And the GI50 (A498 renal)?
The GI50 was 44.2 µM.

What about the TGI (A498 renal) of the same molecule?
The TGI was 96.3 µM.

And the GI50 (SK-OV-3 ovarian)?
Its GI50 is 37 µM.

And the TGI (SK-OV-3 ovarian)?
Its TGI is > 100 µM.

And the GI50 (UO-31 renal)?
The GI50 was 32.3 µM.

And the TGI (UO-31 renal)?
The TGI was > 100 µM.

And the GI50 (UACC-62 melanoma)?
The GI50 was 17.2 µM.

And the TGI (UACC-62 melanoma)?
The TGI was 57 µM.

And the GI50 (SR leukemia)?
Its GI50 is 25.4 µM.

What about the TGI (SR leukemia) of the same molecule?
Its TGI is > 100 µM.

And the GI50 (CAKI-1 renal)?
The GI50 was 85.9 µM.

What about the TGI (CAKI-1 renal) of the same molecule?
The TGI was > 100 µM.

And the GI50 (MDA-MB-435)?
Its GI50 is 44.3 µM.

And the TGI (MDA-MB-435)?
Its TGI is > 100 µM.

And the GI50 (HOP-92 NSCLC)?
Its GI50 is 13.1 µM.

And the TGI (HOP-92 NSCLC)?
Its TGI is 52.2 µM.

What about the GI50 (MDA-MB-231 breast) of the same molecule?
The GI50 was 16.2 µM.

And the TGI (MDA-MB-231 breast)?
The TGI was > 100 µM.

And the GI50 (DU-145 prostate)?
Its GI50 is 42.6 µM.

What about the TGI (DU-145 prostate) of the same molecule?
Its TGI is > 100 µM.

What about the GI50 (NCI/ADR-RES ovarian) of the same molecule?
The GI50 was 25 µM.

And the TGI (NCI/ADR-RES ovarian)?
The TGI was 83.8 µM.

What about the GI50 (SN12C renal) of the same molecule?
The GI50 was 24.1 µM.

What about the TGI (SN12C renal) of the same molecule?
The TGI was 57.3 µM.

And the GI50 (SF-268 CNS)?
Its GI50 is 20.6 µM.

What about the TGI (SF-268 CNS) of the same molecule?
Its TGI is 77.4 µM.

And the GI50 (MOLT-4 leukemia)?
Its GI50 is 33.7 µM.

And the TGI (MOLT-4 leukemia)?
The TGI was > 100 µM.

And the GI50 (U251 CNS)?
The GI50 was 35.6 µM.

And the TGI (U251 CNS)?
Its TGI is > 100 µM.

And the GI50 (HL-60(TB) leukemia)?
The GI50 was > 100 µM.

And the TGI (HL-60(TB) leukemia)?
Its TGI is > 100 µM.

What about the GI50 (HCT-116 colon) of the same molecule?
Its GI50 is 92.8 µM.

What about the TGI (HCT-116 colon) of the same molecule?
The TGI was > 100 µM.

What about the GI50 (NCI-H226 lung) of the same molecule?
The GI50 was 18.5 µM.

And the TGI (NCI-H226 lung)?
Its TGI is 43.3 µM.
